Source: ChEMBL document CHEMBL4118187, “In vitro activity of salicylamide derivatives against vancomycin-resistant enterococci” (Bioorg Med Chem Lett, 2018)
Converted amounts (≈) assume the structure as drawn. The source made the active and inactive calls. No cut-off for these calls is given here.

Columns and labels:
Enterococcus faecalis [1] = experiment: Antibacterial activity against vancomycin-resistant Enterococcus faecalis 342B after 24 hrs; assay type: functional
Enterococcus faecalis [2] = experiment: Antibacterial activity against vancomycin-susceptible Enterococcus faecalis ATCC 29212 after 24 hrs; assay type: functional; conditions: ATCC 29212, 24 h
Enterococcus faecalis [3] = experiment: Antibacterial activity against vancomycin-resistant Enterococcus faecalis 725B after 24 hrs; assay type: functional
Enterococcus faecalis [4] = experiment: Antibacterial activity against vancomycin-resistant Enterococcus faecalis 368 after 24 hrs; assay type: functional; conditions: Enterococcus faecalis, 368, 24 h
Enterococcus faecalis [5] = experiment: Antibacterial activity against vancomycin-resistant Enterococcus faecalis 342B assessed as tetracycline concentration causing additive effect after 18 hrs by checkerboard assay; assay type: functional
Enterococcus faecalis [6] = experiment: Antibacterial activity against vancomycin-resistant Enterococcus faecalis 342B assessed as compound concentration causing additive effect after 18 hrs in presence of tetracycline by checkerboard assay; assay type: functional
Enterococcus faecalis [7] = experiment: Antibacterial activity against vancomycin-resistant Enterococcus faecalis 368 assessed as compound concentration causing additive effect after 18 hrs in presence of tetracycline after 18 hrs by checkerboard assay; assay type: functional
Enterococcus faecalis [8] = experiment: Bacteriostatic activity against vancomycin-resistant Enterococcus faecalis 725B up to 24 hrs by time kill assay; assay type: functional, organism-based
Enterococcus faecalis [9] = experiment: Antibacterial activity against vancomycin-resistant Enterococcus faecalis 725B in presence of vancomycin after 18 hrs by checkerboard assay; assay type: functional
Enterococcus faecalis [10] = experiment: Antibacterial activity against vancomycin-resistant Enterococcus faecalis 725B assessed as compound concentration causing additive effect after 18 hrs in presence of ciprofloxacin by checkerboard assay; assay type: functional
Enterococcus faecalis [11] = experiment: Antibacterial activity against vancomycin-resistant Enterococcus faecalis 342B in presence of vancomycin after 18 hrs by checkerboard assay; assay type: functional
Enterococcus faecalis [12] = experiment: Antibacterial activity against vancomycin-resistant Enterococcus faecalis 342B assessed as vancomycin concentration causing additive effect after 18 hrs by checkerboard assay; assay type: functional
Enterococcus faecalis [13] = experiment: Bacteriostatic activity against vancomycin-resistant Enterococcus faecalis 342B up to 24 hrs by time kill assay; assay type: functional, organism-based
Enterococcus faecalis [14] = experiment: Antibacterial activity against vancomycin-resistant Enterococcus faecalis 725B assessed as ciprofloxacin concentration causing additive effect after 18 hrs by checkerboard assay; assay type: functional
Enterococcus faecalis [15] = experiment: Antibacterial activity against vancomycin-resistant Enterococcus faecalis 368 assessed as tetracycline concentration causing additive effect after 18 hrs after 18 hrs by checkerboard assay; assay type: functional
Enterococcus faecalis [16] = experiment: Antibacterial activity against vancomycin-resistant Enterococcus faecalis 368 assessed as compound concentration causing additive effect after 18 hrs in presence of vancomycin after 18 hrs by checkerboard assay; assay type: functional
Enterococcus faecalis [17] = experiment: Antibacterial activity against vancomycin-resistant Enterococcus faecalis 725B in presence of ciprofloxacin after 18 hrs by checkerboard assay; assay type: functional
Enterococcus faecalis [18] = experiment: Antibacterial activity against vancomycin-resistant Enterococcus faecalis 368 in presence of vancomycin after 18 hrs by checkerboard assay; assay type: functional
Enterococcus faecalis [19] = experiment: Antibacterial activity against vancomycin-resistant Enterococcus faecalis 368 assessed as vancomycin concentration causing additive effect after 18 hrs after 18 hrs by checkerboard assay; assay type: functional
Enterococcus faecalis [20] = experiment: Antibacterial activity against vancomycin-resistant Enterococcus faecalis 342B in presence of tetracycline after 18 hrs by checkerboard assay; assay type: functional
Enterococcus faecalis [21] = experiment: Antibacterial activity against vancomycin-resistant Enterococcus faecalis 368 in presence of tetracycline after 18 hrs by checkerboard assay; assay type: functional
Enterococcus faecalis [22] = experiment: Antibacterial activity against vancomycin-resistant Enterococcus faecalis 342B assessed as compound concentration causing additive effect after 18 hrs in presence of vancomycin by checkerboard assay; assay type: functional
Enterococcus faecalis [23] = experiment: Antibacterial activity against vancomycin-resistant Enterococcus faecalis 725B in presence of tetracycline after 18 hrs by checkerboard assay; assay type: functional
[24] = Cytotoxicity against human THP1 cells after 24 hrs by LDH release assay; assay type: cell-based; conditions: THP-1 cells, read-out: LD50
[25] = Selectivity index, ratio of LD50 for human THP1 cells to MIC for vancomycin-resistant Enterococcus faecalis 342B; assay type: toxicity; conditions: THP-1 cells, read-out: Selectivity Index
Enterococcus faecalis [26] = experiment: Antibacterial activity against vancomycin-resistant Enterococcus faecalis 368 assessed as vancomycin concentration causing synergistic effect after 18 hrs by checkerboard assay; assay type: functional
Enterococcus faecalis [27] = experiment: Antibacterial activity against vancomycin-resistant Enterococcus faecalis 368 assessed as compound concentration causing synergistic effect after 18 hrs in presence of vancomycin by checkerboard assay; assay type: functional

Compound	MBC (Enterococcus faecalis [1])	MIC (Enterococcus faecalis [1])	MBC (Enterococcus faecalis [2])	MIC (Enterococcus faecalis [2])	MBC (Enterococcus faecalis [3])	MIC (Enterococcus faecalis [3])	MBC (Enterococcus faecalis [4])	MIC (Enterococcus faecalis [4])	other results
Cc1ccc(NC(=O)[C@@H](NC(=O)c2cc(Cl)ccc2O)C(C)C)cc1	> 709 µM	> 709 µM	> 709 µM	> 709 µM	> 709 µM	> 709 µM	> 709 µM	> 709 µM	
CC(C)[C@H](NC(=O)OCc1ccccc1)C(=O)Oc1ccc([N+](=O)[O-])cc1C(=O)Nc1ccc(Cl)cc1	> 466 µM	> 466 µM	> 466 µM	> 466 µM	> 466 µM	> 466 µM	> 466 µM	> 466 µM	
CC(C)[C@H](NC(=O)c1ccc(Cl)cc1O)C(=O)Nc1ccc(Br)cc1	> 601 µM	> 601 µM	> 601 µM	> 601 µM	> 601 µM	> 601 µM	> 601 µM	> 601 µM	
O=C(Nc1ccc([N+](=O)[O-])cc1)c1cc(Cl)ccc1O	6.83 µM (≈ 2 µg/mL)	1.71 µM (≈ 0.5 µg/mL)	6.83 µM (≈ 2 µg/mL)	0.85 µM (≈ 0.249 µg/mL)	6.83 µM (≈ 2 µg/mL)	3.42 µM (≈ 1 µg/mL)	> 874 µM	13.7 µM (≈ 4 µg/mL)	Activity (Enterococcus faecalis [5]): 16 µg/mL; Activity (Enterococcus faecalis [6]): 0.5 µg/mL; Activity (Enterococcus faecalis [7]): 1 µg/mL; Activity (Enterococcus faecalis [8]): Active; FIC (Enterococcus faecalis [9]): 1.063 - 1.5; Activity (Enterococcus faecalis [10]): 0.008 µg/mL; FIC (Enterococcus faecalis [11]): 1 - 2.25; Activity (Enterococcus faecalis [12]): 64 µg/mL; Activity (Enterococcus faecalis [13]): Active; Activity (Enterococcus faecalis [14]): 64 µg/mL; Activity (Enterococcus faecalis [15]): 16 µg/mL; Activity (Enterococcus faecalis [16]): 0.063 µg/mL; FIC (Enterococcus faecalis [17]): 1 - 1.25; FIC (Enterococcus faecalis [18]): 0.625 - 1.25; Activity (Enterococcus faecalis [19]): 512 µg/mL; FIC (Enterococcus faecalis [20]): 0.75 - 1.25; FIC (Enterococcus faecalis [21]): 0.75 - 1.25; Activity (Enterococcus faecalis [22]): 0.063 µg/mL; FIC (Enterococcus faecalis [23]): 1.032 - 2.125
CN[C@H](CC(C)C)C(=O)N[C@H]1C(=O)N[C@@H](CC(N)=O)C(=O)N[C@H]2C(=O)N[C@H]3C(=O)N[C@H](C(=O)N[C@H](C(=O)O)c4cc(O)cc(O)c4-c4cc3ccc4O)[C@H](O)c3ccc(c(Cl)c3)Oc3cc2cc(c3O[C@@H]2O[C@H](CO)[C@@H](O)[C@H](O)[C@H]2O[C@H]2C[C@](C)(N)[C@H](O)[C@H](C)O2)Oc2ccc(cc2Cl)[C@H]1O [VANCOMYCIN]		353 µM (≈ 512 µg/mL)				706 µM (≈ 1020 µg/mL)		353 µM (≈ 512 µg/mL)	
O=C(Nc1ccccc1)c1cc(Cl)ccc1O	> 1030 µM	64.6 µM (≈ 16 µg/mL)	1.01 µM (≈ 0.25 µg/mL)	0.5 µM (≈ 0.124 µg/mL)	516 µM (≈ 128 µg/mL)	129 µM (≈ 32 µg/mL)	1030 µM (≈ 256 µg/mL)	129 µM (≈ 32 µg/mL)	CC50 at 24 h [24]: > 40 µM
CC(C)[C@H](NC(=O)OCc1ccccc1)C(=O)Oc1ccc(Cl)cc1C(=O)Nc1ccc(C(F)(F)F)cc1	> 466 µM	> 466 µM	> 466 µM	> 466 µM	> 466 µM	> 466 µM	> 466 µM	> 466 µM	
CN(C)[C@@H]1C(O)=C(C(N)=O)C(=O)[C@@]2(O)C(O)=C3C(=O)c4c(O)cccc4[C@@](C)(O)[C@H]3C[C@@H]12 [TETRACYCLINE]		144 µM (≈ 64 µg/mL)				144 µM (≈ 64 µg/mL)		144 µM (≈ 64 µg/mL)	
CC1(C)S[C@@H]2[C@H](NC(=O)[C@H](N)c3ccccc3)C(=O)N2[C@H]1C(=O)O [AMPICILLIN]					5.72 µM (≈ 2 µg/mL)	5.72 µM (≈ 2 µg/mL)			
O=C(Nc1ccc(Cl)c(Cl)c1)c1ccc(Cl)cc1O	25.3 µM (≈ 8 µg/mL)	0.199 µM (≈ 0.063 µg/mL)	1.58 µM (≈ 0.5 µg/mL)	0.395 µM (≈ 0.125 µg/mL)	25.3 µM (≈ 8 µg/mL)	0.199 µM (≈ 0.063 µg/mL)	202 µM (≈ 63.9 µg/mL)	0.79 µM (≈ 0.25 µg/mL)	FIC (Enterococcus faecalis [9]): 1.031 - 2.234; Activity (Enterococcus faecalis [10]): 0.032 µg/mL; FIC (Enterococcus faecalis [11]): 0.629 - 1.128; Activity (Enterococcus faecalis [12]): 256 µg/mL; Activity (Enterococcus faecalis [14]): 32 µg/mL; Activity (Enterococcus faecalis [16]): 0.25 µg/mL; FIC (Enterococcus faecalis [17]): 0.756 - 1.25; selectivity ratio [25]: 128; CC50 at 24 h [24]: 25.6 µM; FIC (Enterococcus faecalis [18]): 1 - 1.25; Activity (Enterococcus faecalis [19]): 256 µg/mL; FIC (Enterococcus faecalis [20]): 1.016 - 1.508; FIC (Enterococcus faecalis [21]): 1.016 - 1.504; Activity (Enterococcus faecalis [22]): 0.032 µg/mL; FIC (Enterococcus faecalis [23]): 1.016 - 1.504
CC(C)[C@H](NC(=O)OCc1ccccc1)C(=O)Oc1ccc(Cl)cc1C(=O)Nc1ccc([N+](=O)[O-])cc1	> 486 µM	> 486 µM	> 486 µM	> 486 µM	> 486 µM	> 486 µM	> 486 µM	> 486 µM	
O=C(Nc1ccc(Cl)cc1)c1cc([N+](=O)[O-])ccc1O	> 874 µM	> 874 µM	> 874 µM	> 874 µM	> 874 µM	> 874 µM	> 874 µM	> 874 µM	CC50 at 24 h [24]: > 40 µM
CC(C)[C@H](NC(=O)OCc1ccccc1)C(=O)Oc1cc(Cl)ccc1C(=O)Nc1ccc(Cl)c(Cl)c1	> 465 µM	> 465 µM	> 465 µM	> 465 µM	> 465 µM	> 465 µM	> 465 µM	> 465 µM	
COc1ccc(NC(=O)c2cc(Cl)ccc2OC(=O)[C@@H](NC(=O)OCc2ccccc2)C(C)C)cc1	> 499 µM	> 499 µM	> 499 µM	> 499 µM	> 499 µM	> 499 µM	> 499 µM	> 499 µM	
CC(C)[C@H](NC(=O)c1cc(Cl)ccc1O)C(=O)Nc1ccc(C(F)(F)F)cc1	> 617 µM	> 617 µM	19.3 µM (≈ 8 µg/mL)	19.3 µM (≈ 8 µg/mL)	> 617 µM	> 617 µM	> 617 µM	> 617 µM	
O=C(Nc1ccc(C(F)(F)F)cc1)c1cc(Cl)ccc1O	25.3 µM (≈ 8 µg/mL)	0.396 µM (≈ 0.125 µg/mL)	6.34 µM (≈ 2 µg/mL)	0.199 µM (≈ 0.0628 µg/mL)	25.3 µM (≈ 8 µg/mL)	0.792 µM (≈ 0.25 µg/mL)	> 810 µM	3.16 µM (≈ 0.998 µg/mL)	Activity (Enterococcus faecalis [26]): 128 µg/mL; Activity (Enterococcus faecalis [7]): 0.25 µg/mL; FIC (Enterococcus faecalis [9]): 1 - 1.25; Activity (Enterococcus faecalis [10]): 0.125 µg/mL; FIC (Enterococcus faecalis [11]): 0.75 - 1.25; Activity (Enterococcus faecalis [12]): 256 µg/mL; Activity (Enterococcus faecalis [14]): 32 µg/mL; Activity (Enterococcus faecalis [15]): 8 µg/mL; Activity (Enterococcus faecalis [27]): 0.125 µg/mL; Activity (Enterococcus faecalis [16]): 0.25 µg/mL; FIC (Enterococcus faecalis [17]): 0.532 - 1.125; FIC (Enterococcus faecalis [18]): 0.375 - 1.064; Activity (Enterococcus faecalis [19]): 32 µg/mL; FIC (Enterococcus faecalis [20]): 1.008 - 1.5; FIC (Enterococcus faecalis [21]): 0.625 - 1.25; Activity (Enterococcus faecalis [22]): 0.5 µg/mL; FIC (Enterococcus faecalis [23]): 1.032 - 1.5
